Measured values reported in patent EP1276895B1, “METHOD FOR THE IDENTIFICATION OF ACTIVE SITE PROTEASE INACTIVATORS” (THE UNIVERSITY OF GEORGIA RESEARCH FOUNDATION, INC., priority 2000, dated 2001).
Residues, ends and D or L forms follow the SMILES beside them. *: point of attachment. AFC = O=c1cc(C(F)(F)F)c2ccc(N*)cc2o1; Cbz = O=C(OCc1ccccc1)*; CH2F = FC*

What was measured:
[1] = tested on: purified Taenia solium cysteine protease; experiment: Competitor assay of low Vmax substrates (vehicles) against high Vmax substrate cocktails (Step III), purified protease; type: biochemical; details: robustness of inhibition
[2] = tested on: purified Taenia solium cysteine protease; experiment: Inhibition assay of protease inactivators against the high Vmax cocktail, EC100 and Ki ranking (Step VII B); type: biochemical; details: for ranking of protease inactivators by EC100: dilution study, nanomolar levels; for % Inhibition of T. solium CP in vitro: concentration not stated in Table 4; for Ki of protease inactivator: nonlinear fitting and Dixon plot, values not reported
Description: Once the protease inactivators were synthesized in the organic laboratory, they were to be tested for the lowest efficacious concentrations at which they induced 100% inhibition of the target protease (EC100). The top percent cocktail that was employed in the final vehicle selection step of Step III was employed as the source of competition for the inhibitors. In this case, this was the […] which was comprised of Z-FR-AFC, Z-FAR-AFC, Z-AP-AFC, Z-AAK-AFC, and Z-VLR-AFC. The final result would be a ranking of transition state candidate protease inactivators with a high ranking directly correlating to a low EC100 value. The following steps describe the assay:
Step A: Initial Screening. To set up the test control, each protease inactivator was first incubated with the […] (which provided the final differentiation of vehicles in Step III). To begin with, the protease inactivator was incubated at a concentration of 3 X 10^-9M in 500 ul of assay buffer ([…], pH 4.9 supplemented with 10mM L-cysteine). This concentration was determined, after a series of inhibitor dilutions identified, to be the best inhibitor concentration at which a differentiation in inhibitor potential could be noted. Next, a concentration equal to 4 X 10^-5M for each of the individual cocktail components, was added to the mix. The components were allowed to equilibrate for a period of 30 minutes. Finally, active purified enzyme was added to the tubes at a concentration which was always at least 50 times less than the concentration of the lowest concentration in the mix (to provide saturating conditions.) This concentration varied from purification to purification and the amount added depended upon the yield and specific activity of the purified protease.
Positive controls were set up similarly as described for test controls, except that solvent was added in substitution for the protease inactivator (in a volume equal to the […] volume addition). All of the protease inactivators could be dissolved in dimethylsulfoxide (DMSO), and therefore, this was the solvent of choice. Negative controls were set up by adding the protease inactivator and the cocktail substrates in a tube, without the protease. All potential non-proteolytic induced liberation of AFC was therefore controlled for in this tube (a feature which also insured stability of the AFC substrates, since these substrates will freely liberate AFC when unstable).
All controls were set up in triplicate, and experiments repeated a minimum of five times. The assays were incubated at 37°C, overnight. Percent inhibition was calculated as: % Inhibition = ((AFC positive for ʺSIʺ-AFC negative for ʺSIʺ)-(AFC test-AFC negative for ʺSIʺ))/(AFC positive for ʺSIʺ-AFC negative for ʺSIʺ) × 100 [formula]
Because of this, a dilution study was required in order to determine a viable ranking. Thus, the concentration of each of the protease inactivators was lowered with a dose response setup until the most efficacious concentration for 100% inhibition (EC100) could be determined. […] The final result of the assay was a ranked candidate list of protease inactivators. A lower EC100 was attributable to a higher ranking and vice-versa.
In order to determine Ki, all of the high Vmax cocktail substrates were employed for Ki determination (since Ki of the inhibitor for the enzyme is the same regardless of the substrate). To insure the highest accuracy, Ki was to be determined upon a minimum of at least three of the high Kcat substrates. Nonlinear fitting and the Dixon plot were both employed to determine Ki of the top ranked protease inactivators. A further plot was constructed using either Eadie Hofstee as well as Hanes to determine the mode of inhibition. These methods were used in order to determine the type of inhibition.

T. crassiceps cysts = experiment: Therapeutic protection study in BALB/c mice; type: in vivo, Taenia crassiceps; details: inhibitor treatment began two weeks after infection with T. crassiceps cysts
Description: Mice in all groups survived without noticeable side effects (e.g., coat condition, tail dragging or paresis, etc).

## CC(C)C[C@H](NC(=O)OCc1ccccc1)C(=O)N[C@@H](CC(C)C)C(=O)N[C@@H](CC(C)C)C(=O)Nc1ccc2c(C(F)(F)F)cc(=O)oc2c1 [Z-LLL-AFC, Z-Leu-Leu-Leu-AFC] (Cbz-Leu-Leu-Leu-{AFC})
[1]
  percentage drop in inhibition between the 1.4% and the 7.4% cocktail: 25%

## CC(C)C[C@H](NC(=O)[C@H](CC(C)C)NC(=O)[C@H](CC(C)C)NC(=O)OCc1ccccc1)C(=O)CF [Z-LLL-FMK, Z-Leu-Leu-Leu-fluoromethylketone] (Cbz-Leu-Leu-Leu-CH2F)
[2]
  ranking of protease inactivators by EC100: top inhibitors
  % Inhibition of T. solium CP in vitro: 100%
  Ki of protease inactivator: lowest Ki values
T. crassiceps cysts
  % Therapeutic protection of BALB/c mice: 60%

## CC(C)C[C@H](NC(=O)OCc1ccccc1)C(=O)N[C@@H](CC(C)C)C(=O)N[C@@H](Cc1ccc(O)cc1)C(=O)CF [Z-LLY-FMK, Z-Leu-Leu-Tyr-FMK] (Cbz-Leu-Leu-Tyr-CH2F)
[2]
  ranking of protease inactivators by EC100: top inhibitors
  % Inhibition of T. solium CP in vitro: 97%
  Ki of protease inactivator: lowest Ki values
